We go through nine molecules from ChEMBL document CHEMBL2021836, “Medicinal chemistry approaches to avoid aldehyde oxidase metabolism” (Bioorg Med Chem Lett, 2012).

Data set [1] is described as follows: Intrinsic clearance in human cytosol after 45 mins by LC/MS analysis. The data set is classed as ADME.
A short description of data set [2]: Intrinsic clearance in human liver microsomes. Format: ADME, Microsome. The following applies: read-out: CLH.
A short description of data set [3]: Intrinsic clearance in rat liver microsomes. The data set is classed as ADME, Microsome. The conditions noted are these: read-out: CLH.
Data set [4] can be described thus: Intrinsic clearance in rat cytosol after 45 mins by LC/MS analysis. The data set is classed as ADME.
Data set [5] has as its target T1, Toll-like receptor 7 (Homo sapiens) (UniProt Q9NYK1).
T1 sequence (whole entry): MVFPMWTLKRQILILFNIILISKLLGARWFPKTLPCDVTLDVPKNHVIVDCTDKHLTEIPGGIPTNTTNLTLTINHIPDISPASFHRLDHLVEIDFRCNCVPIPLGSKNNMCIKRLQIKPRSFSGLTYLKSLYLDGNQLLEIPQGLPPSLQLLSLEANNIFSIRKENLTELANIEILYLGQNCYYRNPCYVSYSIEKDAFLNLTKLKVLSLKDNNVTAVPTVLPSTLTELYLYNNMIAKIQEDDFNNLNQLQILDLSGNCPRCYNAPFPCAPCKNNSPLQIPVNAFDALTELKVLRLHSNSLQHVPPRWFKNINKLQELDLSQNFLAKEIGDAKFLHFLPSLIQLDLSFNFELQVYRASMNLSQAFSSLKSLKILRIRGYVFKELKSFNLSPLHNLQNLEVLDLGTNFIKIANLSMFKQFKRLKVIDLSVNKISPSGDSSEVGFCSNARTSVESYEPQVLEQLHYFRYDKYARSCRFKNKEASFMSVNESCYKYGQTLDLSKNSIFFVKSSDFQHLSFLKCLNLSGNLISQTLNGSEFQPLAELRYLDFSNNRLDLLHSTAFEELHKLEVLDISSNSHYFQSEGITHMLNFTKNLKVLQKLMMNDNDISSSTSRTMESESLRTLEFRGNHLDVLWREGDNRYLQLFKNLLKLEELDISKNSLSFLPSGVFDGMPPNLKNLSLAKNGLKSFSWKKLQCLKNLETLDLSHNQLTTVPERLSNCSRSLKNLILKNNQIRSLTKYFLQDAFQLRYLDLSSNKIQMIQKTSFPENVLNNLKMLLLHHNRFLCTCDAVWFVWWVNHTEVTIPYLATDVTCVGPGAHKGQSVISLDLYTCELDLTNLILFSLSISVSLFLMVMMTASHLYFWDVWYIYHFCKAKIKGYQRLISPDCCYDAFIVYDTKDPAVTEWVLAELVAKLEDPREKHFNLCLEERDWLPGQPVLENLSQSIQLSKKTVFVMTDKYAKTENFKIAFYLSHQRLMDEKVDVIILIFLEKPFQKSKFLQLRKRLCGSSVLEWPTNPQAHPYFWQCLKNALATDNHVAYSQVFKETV
Put plainly: Agonist activity at human TLR7 expressed in human PBMCs assessed as reduction in HCV replicon level after 48 hrs by Bright Glo luciferase reporter gene assay. Format: functional.

Each structure is given as a SMILES string.

`Cc1nc(Cn2c(=O)[nH]c3c(N)nc(C(F)(F)F)cc32)co1`: the microsomal CLint in data set [1] was < 1 µL/min/mg; in data set [2], < 8 µL/min/mg; in data set [3], < 10 µL/min/mg; in data set [4], < 1 µL/min/mg.
As to `Cc1cc(Cn2c(=O)[nH]c3c(N)nc(C(F)(F)F)cc32)no1`, the microsomal CLint is < 1 µL/min/mg in data set [1], < 8 µL/min/mg in data set [2], < 9 µL/min/mg in data set [3] and < 1 µL/min/mg in data set [4].
Turning to `Nc1nc(C(F)(F)F)cc2c1[nH]c(=O)n2Cc1ccc(C(F)(F)F)nc1`, in data set [5], the Activity is 75 nM.
For the molecule `Cc1nc(Cn2c(=O)[nH]c3c(N)nc(C(F)(F)F)cc32)cs1`, the microsomal CLint in data set [1] is < 1 µL/min/mg; in data set [2], < 7 µL/min/mg; in data set [3] it was < 10 µL/min/mg; in data set [4] it was < 1 µL/min/mg.
On to `Nc1nc(C(F)(F)F)cc2c1[nH]c(=O)n2Cc1ccc(NCC2CC2)nc1`, for which the Activity in data set [5] came out at 122 nM.
Turning to `CCc1coc(-c2cc3c([nH]c(=O)n3Cc3ccc(C)nc3)c(N)n2)n1`, the Activity in data set [5] came out at 116 nM.
On the same count and under the same terms, next, `Nc1nc(C(F)(F)F)cc2c1[nH]c(=O)n2Cc1ccc(N2CCOCC2)nc1`: 32 nM; `COc1ccc(Cn2c(=O)[nH]c3c(N)nc(C(F)(F)F)cc32)cn1`: 74 nM.
Take `Nc1ccc(Cn2c(=O)[nH]c3c(N)nc(C(F)(F)F)cc32)cn1`: the Activity in data set [5] was found to be 43 nM.
